In patent publication US9296751B1, “Indolizino[3,2-c]quinoline derivatives, pharmaceutically acceptable salt thereof, preparation method thereof and pharmaceutical composition for treatment of cystic fibrosis containing the same as active ingredient” (INDUSTRY-ACADEMIC COOPERATION FOUNDATION, YONSEI UNIVERSITY, priority 2014, dated 2016):

What was measured:
[1] = test system: Adipose-derived stem cells; experiment: Migration assay (mechanical wound, Incucyte zoom); format: cell-based; conditions: 0.1, 1, 10, 50 μM, 24 and 48 hours; FIG. 5 and FIG. 6
Description: Adipose-derived stem cells are implanted into a 96-well plate in a number of 3×10^4/well and cultured for 24 hours. Then, media change into high-glucose DMEM is carried out and the cells are cultured overnight. After starvation, a mechanical wound is made and the cells are treated with each of the compounds according to Examples at a different concentration (0.1, 1, 10, 50 μM). Next, the cells are incubated for 24 hours and 48 hours under the conditions of 37° C. and 5% CO2. Then, the Incucyte zoom (Essen Bioscience, USA) is photographed from the time point of treatment with each compound at an interval of 1 hour to analyze the migration of ASC.

[2] = test system: Adipose-derived stem cells (ASC); experiment: Proliferation/viability MTT assay, adipose-derived stem cells; format: cell-based; conditions: 0.1-100 μM, 24 and 48 hours, FIG. 2
Description: (§1) Adipose-derived stem cells (ASC) and melanoma cells (B16 melanoma cells) are cultured in high-glucose Dulbecco's modified Eagle's medium (DMEM) with 10% fetal bovine serum (FBS) introduced thereto. Each type of cells is cultured in an incubator under the conditions of 37° C. and 5% CO2.
(§2) Cell survivability and cytotoxicity are determined in a 96-well plate by MTT assay. Each type of cells is implanted into a 6-well plate in a number of 3×10^4/well (ASC) and 4×10^4/well and cultured for 24 hours. Then, media change into high-glucose DMEM is carried out for both ASC and B16 and cultured overnight. After starvation, the cells are treated with each of the compounds according to Examples at a different concentration (0.1, 1, 10, 50, 100 μM), and further incubated for 24 hours and 48 hours under the conditions of 37° C. and 5% CO2. Then, MTT solution (5 mg/ml in PBS) is added to each well in an amount corresponding to 1/20 of the media volume, and incubation is carried out at 37° C. for 2 hours so that the cells are colored. After that, the supernatant is removed and dimethyl sulfoxide is added to carry out discoloration. The solution is determined by using an enzyme-linked immunosorbent assay (ELISA) reader at a wavelength of 595 nm.

[3] = test system: Adipose-derived stem cells (ASC) and melanoma cells (B16 melanoma cells); experiment: Cytotoxicity by MTT assay; format: cell-based; conditions: at a high concentration of 100 μM, FIG. 3 and FIG. 4
Description: as §1, §2

[4] = biological target: T1, human cystic fibrosis conductance transmembrane regulator (CFTR) (Homo sapiens, UniProt P13569); experiment: Effect upon CFTR chloride ion channel activity (YFP fluorescence quenching by iodide influx in FRT cells); format: cell-based; conditions: for CFTR activity ratio, result in words: 30 μM, comment on Table 2; for Emax at 30 µM: FRT, 10 min, final concentration of 30 μM, reaction for 10 minutes, ratio based on the CFTR activity maximized by forskolin
T1 construct: expressed in transfected cells; host or cells: FRT cells (Fischer rat thyroid epithelial cells)
Description: FRT cells expressing […] specific to human cystic fibrosis conductance transmembrane regulator (CFTR) and iodide ions are cultured in the Coon's modified F-12 culture medium for 48 hours on a 96-well plate. Each well of the plate containing the cultured cells is washed three times with 200 μl of PBS buffer, and then 100 μl of PBS buffer is added to each well. The indolizino[3,2-c]quinoline derivative according to each Example is introduced to each well to a final concentration of 30 μM, followed by reaction for 10 minutes. After the completion of the reaction, the 96-well is mounted to a FLUOstar Omega microplate reader (BMG LABTECH) and 100 μl of NaI solution is added to each well. Then, YFP fluorescence reduced by the iodide ions introduced to the cells through CFTR is recorded at an interval of 0.4 seconds for 24 seconds in total, thereby evaluating the effect of each compound upon CFTR activity.
The effect of each indolizino[3,2-c]quinoline derivative upon CFTR chloride ion channel activity is calculated as an activity ratio based on the CFTR activity maximized by a well-known CFTR agonist, forskolin.

T1 sequence (P13569 whole entry): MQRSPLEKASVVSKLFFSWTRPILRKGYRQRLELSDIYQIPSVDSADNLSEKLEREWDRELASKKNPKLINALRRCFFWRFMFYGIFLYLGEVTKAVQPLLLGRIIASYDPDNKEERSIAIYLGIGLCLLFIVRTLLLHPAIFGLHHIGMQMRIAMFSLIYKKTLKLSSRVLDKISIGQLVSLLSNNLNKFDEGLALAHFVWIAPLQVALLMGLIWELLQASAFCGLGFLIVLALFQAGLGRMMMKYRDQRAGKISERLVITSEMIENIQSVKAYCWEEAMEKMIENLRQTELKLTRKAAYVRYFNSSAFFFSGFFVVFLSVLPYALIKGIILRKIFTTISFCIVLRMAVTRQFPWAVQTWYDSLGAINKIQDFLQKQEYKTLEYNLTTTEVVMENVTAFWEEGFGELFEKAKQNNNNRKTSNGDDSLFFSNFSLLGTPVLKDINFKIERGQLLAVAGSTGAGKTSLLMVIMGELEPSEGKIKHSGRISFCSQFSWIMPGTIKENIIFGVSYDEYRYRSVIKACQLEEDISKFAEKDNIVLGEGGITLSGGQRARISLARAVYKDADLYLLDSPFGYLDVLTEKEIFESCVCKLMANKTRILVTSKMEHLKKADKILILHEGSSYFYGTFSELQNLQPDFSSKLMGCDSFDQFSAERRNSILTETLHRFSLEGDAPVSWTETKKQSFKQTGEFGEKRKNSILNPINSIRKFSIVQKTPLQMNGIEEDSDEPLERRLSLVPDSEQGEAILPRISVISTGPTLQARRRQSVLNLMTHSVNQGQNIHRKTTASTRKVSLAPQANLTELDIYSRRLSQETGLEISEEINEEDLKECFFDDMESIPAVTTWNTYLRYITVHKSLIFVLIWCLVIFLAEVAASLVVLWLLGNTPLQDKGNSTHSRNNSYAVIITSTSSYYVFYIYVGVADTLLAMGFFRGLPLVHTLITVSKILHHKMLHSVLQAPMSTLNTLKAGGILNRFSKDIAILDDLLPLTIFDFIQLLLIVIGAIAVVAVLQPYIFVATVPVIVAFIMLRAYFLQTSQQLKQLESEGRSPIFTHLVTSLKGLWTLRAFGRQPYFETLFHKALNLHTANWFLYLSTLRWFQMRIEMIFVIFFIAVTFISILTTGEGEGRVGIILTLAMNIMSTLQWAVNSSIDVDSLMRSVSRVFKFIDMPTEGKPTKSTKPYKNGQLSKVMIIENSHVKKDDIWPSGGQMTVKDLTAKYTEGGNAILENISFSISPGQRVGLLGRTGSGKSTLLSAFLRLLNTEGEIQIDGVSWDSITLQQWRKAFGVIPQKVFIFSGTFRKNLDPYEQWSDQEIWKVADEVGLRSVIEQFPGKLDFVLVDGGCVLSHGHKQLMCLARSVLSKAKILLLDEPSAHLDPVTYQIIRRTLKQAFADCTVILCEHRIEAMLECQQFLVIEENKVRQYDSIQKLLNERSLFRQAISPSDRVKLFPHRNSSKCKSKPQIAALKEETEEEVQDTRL

Row | melting point [°C] | CFTR activity ratio, result in words [4] | Emax at 30 µM [4] [%] | SMILES | migration ability of adipose-derived stem cells [1] | proliferation of adipose-derived stem cells [2] | cytotoxicity [3]
1 | 205.5 to 205.8 | high activity ratio | 85 | Brc1ccc(-c2nc3ccccc3c3cc4ccccn4c23)cc1 [Example 1, 6-(4-Bromophenyl)indolizino[3,2-c]quinoline] |  |  | 
2 | 195.5 to 195.8 |  | 31 | CCOC(=O)c1c2c3ccccc3nc(-c3ccc(OC)c(OC)c3)c2n2ccccc12 [Example 38, Ethyl 6-(3,4-dimethoxyphenyl)indolizino[3,2-c]quinoline-12-carboxylate] |  |  | 
3 | 205.6 to 206.3 |  | 44 | c1ccc2c(-c3nc4ccccc4c4cc5ccccn5c34)cccc2c1 [Example 12, 6-(Naphthalen-1-yl)indolizino[3,2-c]quinoline] | has migration ability | highly effective | no toxicity
4 | 177.9 to 178.3 | high activity ratio | 82 | c1ccc(-c2nc3ccccc3c3cc4ccccn4c23)nc1 [Example 14, 6-(Pyridin-2-yl)indolizino[3,2-c]quinoline] |  | highly effective | 
5 | 205.9 to 206.3 | high activity ratio |  | COC(=O)c1c2c3ccccc3nc(-c3cc(OC)cc(OC)c3)c2n2ccccc12 [Example 31, Methyl 6-(3,5-dimethoxyphenyl)indolizino[3,2-c]quinoline-12-carboxylate] |  |  | 

The remaining lines, values behind:

Row | SMILES | melting point [°C] | CFTR activity ratio, result in words [4] | Emax at 30 µM [4] [%] | migration ability of adipose-derived stem cells [1] | proliferation of adipose-derived stem cells [2] | cytotoxicity [3]
6 | Brc1ccc2cc3c4ccccc4nc(-c4cccc5ccccc45)c3n2c1 [Example 27, 9-Bromo-6-(4naphthalen-1-yl)indolizino[3,2-c]quinoline] | 212 to 212.7 |  |  | has migration ability | highly effective | no toxicity
7 | Cc1cccn2c1cc1c3ccccc3nc(-c3ccco3)c12 [Example 23, 6-(Furan-2-yl)-11-methylindolizino[3,2-c]quinoline] | 112.4 to 113.2 |  |  |  | highly effective | 
8 | O=[N+]([O-])c1ccc(-c2nc3ccccc3c3cc4ccccn4c23)cc1 [Example 5, 6-(4-Nitrophenyl)indolizino[3,2-c]quinoline] | 246.3 to 246.5 | high activity ratio | 93 |  |  | 
